Where a SMILES comes first, the peptide text is derived from it. The star is where a group is joined. Cbz = O=C(OCc1ccccc1)*
Tested on: HIF-1α
Assay: Western blot of HIF-1α expression in HCT116 cells
Assay type: cell-based
Conditions: for HIF-1α expression increased by Smurf2 knockdown, effect of treatment / HIF-1α expression: HCT116 cells; for HIF-1α expression increased by Smurf2 knockdown, effect of treatment: Smurf2 siRNA 48 hours, normoxia 6 hours, Ro3306 5 μM, palbociclib 10 μM, abemaciclib 1 μM; for HIF-1α expression: normoxia
Protocol: HCT116 cells were obtained from American Type Culture Collection (ATCC) and were maintained according to ATCC recommendation in McCoy's 5A medium (Hyclone) with 10% fetal bovine serum (FBS) (Hyclone) and 1% penicillin/streptomycin (P/S) (Corning). Cells were regularly tested for mycoplasma and authenticated. Cells were maintained at 37° C. in 5% CO2. Hypoxia treatment was performed in a hypoxia chamber (In vivo2, Ruskinn) which maintains 0.5% O2 and 5% CO2 at 37° C.
Plasmid expression was performed by 24 hours transfection using Opti-MEM (Thermo Fisher Scientific) and Lipofectamine 2000 (Life Technologies). Knockdown experiments were performed by siRNA transfection for 48 hours with Opti-MEM and Lipofectamine RNAiMAX (Life Technologies), according to the manufacturer's protocol.
Treated cells were lysed in RIPA buffer (Sigma). Protein concentrations were determined using a BCA Protein Assay Kit (Life Technologies). Equal amounts of total protein were boiled with NuPAGE™ LDS sample buffer (Thermo Fisher Scientific) and reducing agent (Invitrogen) or 2-mercaptoethanol. Samples were analyzed with SDS-PAGE. Proteins were transferred to an Immobilon-P PVDF membrane (EMD Millipore). Primary and secondary antibodies were added in order. Signals were detected after addition of the ECL western blotting substrate (Thermo Fisher Scientific).

SMILES | HIF-1α expression increased by Smurf2 knockdown, effect of treatment | HIF-1α expression increased by Smurf2 knockdown, effect of treatment (listed as Ro3306) | HIF-1α expression upon Smurf2 overexpression (HCT116 cells transfected with myc-Smurf2 plasmid, 6 hours, dose-dependent) | HIF-1α expression (2 μM, 6 hours) | HIF-1α expression (5 μM, 6 hours)
O=C1NC(=NCc2cccs2)S/C1=C\c1ccc2ncccc2c1 [Ro-3306] | not reversed | further increased |  |  | 
CC(C)C[C@@H](C=O)NC(=O)[C@H](CC(C)C)NC(=O)[C@H](CC(C)C)NC(=O)OCc1ccccc1 [MG132] (Cbz-Leu-Leu-Leu-aldehyde) |  |  | partially rescued | increased | more robustly

From patent publication US20230183356A1, “HIF-1a MODULATORS AND USES THEREOF” (Brown University, priority 2021, published 2023)
